Reference: ChEMBL document CHEMBL2073905, “Interactions of a nonpeptidic drug, valacyclovir, with the human intestinal peptide transporter (hPEPT1) expressed in a mammalian cell line” (J Pharmacol Exp Ther, 1999)
Where a SMILES comes first, the peptide text is derived from it. [ ]: non-standard residue; d: D form. Sar = CNCC(=O)O

Legend:
Type in all cases: functional, cell-based
[1] = molecular target: T1, Solute carrier family 15 member 1 (Homo sapiens) (UniProt P46059); experiment: TP_TRANSPORTER: inhibition of VACV uptake (VACV: 20 uM, Gly-Gly: 10000 uM) in PEPT1-expressing CHO cells
T1 sequence (whole entry): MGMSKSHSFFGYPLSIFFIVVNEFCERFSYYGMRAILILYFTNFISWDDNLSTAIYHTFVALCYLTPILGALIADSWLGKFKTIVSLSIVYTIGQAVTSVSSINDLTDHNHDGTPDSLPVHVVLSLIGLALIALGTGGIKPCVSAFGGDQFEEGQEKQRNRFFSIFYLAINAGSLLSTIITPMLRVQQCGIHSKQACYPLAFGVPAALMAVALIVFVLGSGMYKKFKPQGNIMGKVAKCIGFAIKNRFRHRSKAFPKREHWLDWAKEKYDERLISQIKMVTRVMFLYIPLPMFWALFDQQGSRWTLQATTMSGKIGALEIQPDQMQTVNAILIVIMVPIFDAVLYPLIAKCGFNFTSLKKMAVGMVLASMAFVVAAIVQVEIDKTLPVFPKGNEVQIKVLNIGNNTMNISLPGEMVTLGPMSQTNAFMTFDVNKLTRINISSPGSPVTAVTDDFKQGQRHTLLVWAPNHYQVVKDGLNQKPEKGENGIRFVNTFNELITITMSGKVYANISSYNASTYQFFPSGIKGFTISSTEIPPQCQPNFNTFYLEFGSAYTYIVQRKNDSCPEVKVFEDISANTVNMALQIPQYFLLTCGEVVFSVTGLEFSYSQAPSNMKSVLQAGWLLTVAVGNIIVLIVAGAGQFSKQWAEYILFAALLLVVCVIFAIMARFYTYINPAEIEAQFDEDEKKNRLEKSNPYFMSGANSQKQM

[2] = molecular target: T1, Solute carrier family 15 member 1 (Homo sapiens); experiment: TP_TRANSPORTER: inhibition of VACV uptake (VAVC: 20 uM, Ampicillin: 10000 uM) in PEPT1-expressing CHO cells
[3] = molecular target: T1, Solute carrier family 15 member 1 (Homo sapiens); experiment: TP_TRANSPORTER: inhibition of VACV uptake (VACV: 20 uM, Leu-Leu: 10000 uM) in PEPT1-expressing CHO cells
[4] = molecular target: T1, Solute carrier family 15 member 1 (Homo sapiens); experiment: TP_TRANSPORTER: inhibition of VACV uptake (VACV: 20 uM, Cephalexin: 10000 uM) in PEPT1-expressing CHO cells
[5] = molecular target: T2, Solute carrier family 15 member 1 (Homo sapiens, UniProt P46059); experiment: TP_TRANSPORTER: inhibition of VACV uptake in PEPT1-expressing CHO cells
T2 sequence (P46059 whole entry): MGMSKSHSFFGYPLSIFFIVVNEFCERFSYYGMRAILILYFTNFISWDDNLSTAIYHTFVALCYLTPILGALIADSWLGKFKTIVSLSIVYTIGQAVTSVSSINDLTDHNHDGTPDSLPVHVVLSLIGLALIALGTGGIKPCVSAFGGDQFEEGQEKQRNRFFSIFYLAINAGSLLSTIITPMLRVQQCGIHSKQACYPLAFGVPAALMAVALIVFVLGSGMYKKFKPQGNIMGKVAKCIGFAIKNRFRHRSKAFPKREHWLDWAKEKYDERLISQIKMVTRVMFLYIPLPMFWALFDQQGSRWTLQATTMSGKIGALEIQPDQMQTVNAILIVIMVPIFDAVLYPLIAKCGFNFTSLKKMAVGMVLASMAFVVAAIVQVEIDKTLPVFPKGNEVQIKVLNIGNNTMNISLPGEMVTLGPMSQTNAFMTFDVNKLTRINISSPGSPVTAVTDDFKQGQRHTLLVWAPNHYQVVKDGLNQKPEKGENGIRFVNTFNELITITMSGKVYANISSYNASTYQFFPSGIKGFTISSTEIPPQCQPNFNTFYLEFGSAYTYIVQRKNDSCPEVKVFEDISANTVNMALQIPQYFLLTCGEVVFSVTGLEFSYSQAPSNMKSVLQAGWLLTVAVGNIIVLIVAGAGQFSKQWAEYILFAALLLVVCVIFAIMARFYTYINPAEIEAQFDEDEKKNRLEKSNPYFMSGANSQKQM

[6] = molecular target: T1, Solute carrier family 15 member 1 (Homo sapiens); experiment: TP_TRANSPORTER: inhibition of VACV uptake (VACV: 20 uM, Gly-Leu: 10000 uM) in PEPT1-expressing CHO cells
[7] = substrate: CC(C)[C@H](N)C(=O)OCCOCn1cnc2c(=O)nc(N)[nH]c21; experiment: (§1) TP_TRANSPORTER: uptake in PEPT1-expressing CHO cells
[8] = substrate: CN(CC(=O)O)C(=O)CN; experiment: as §1

With `NCC(=O)NCC(=O)O` (H-Gly-Gly-OH) the inhibition [1] was greater than 80%.

In the case of `CC1(C)S[C@@H]2[C@H](NC(=O)[C@H](N)c3ccccc3)C(=O)N2[C@H]1C(=O)O`, the inhibition [2] is reported as 50%.

In the case of `CC(C)C[C@H](NC(=O)[C@@H](N)CC(C)C)C(=O)O`, the inhibition [3] is reported as greater than 80%.

`CC1=C(C(=O)O)N2C(=O)[C@@H](NC(=O)[C@H](N)c3ccccc3)[C@H]2SC1` gave an inhibition [4] of 50%.

With `CN(CC(=O)O)C(=O)CN` [GLYCYLSARCOSINE] (H-Gly-[Sar]-OH) the Ki [5] was 12.8 mM.

`CC1=C(C(=O)O)N2C(=O)[C@@H](NC(=O)[C@H](N)c3ccc(O)cc3)[C@H]2SC1` [CEFADROXIL] was tested, and the Ki [5] was 9.1 mM.

Work on `CC(C)C[C@H](NC(=O)CN)C(=O)O` yielded an inhibition [6] greater than 80%.

B1: Solute carrier family 15 member 1 (Homo sapiens), P46059 (protein)
chain: MGMSKSHSFFGYPLSIFFIVVNEFCERFSYYGMRAILILYFTNFISWDDNLSTAIYHTFVALCYLTPILGALIADSWLGKFKTIVSLSIVYTIGQAVTSVSSINDLTDHNHDGTPDSLPVHVVLSLIGLALIALGTGGIKPCVSAFGGDQFEEGQEKQRNRFFSIFYLAINAGSLLSTIITPMLRVQQCGIHSKQACYPLAFGVPAALMAVALIVFVLGSGMYKKFKPQGNIMGKVAKCIGFAIKNRFRHRSKAFPKREHWLDWAKEKYDERLISQIKMVTRVMFLYIPLPMFWALFDQQGSRWTLQATTMSGKIGALEIQPDQMQTVNAILIVIMVPIFDAVLYPLIAKCGFNFTSLKKMAVGMVLASMAFVVAAIVQVEIDKTLPVFPKGNEVQIKVLNIGNNTMNISLPGEMVTLGPMSQTNAFMTFDVNKLTRINISSPGSPVTAVTDDFKQGQRHTLLVWAPNHYQVVKDGLNQKPEKGENGIRFVNTFNELITITMSGKVYANISSYNASTYQFFPSGIKGFTISSTEIPPQCQPNFNTFYLEFGSAYTYIVQRKNDSCPEVKVFEDISANTVNMALQIPQYFLLTCGEVVFSVTGLEFSYSQAPSNMKSVLQAGWLLTVAVGNIIVLIVAGAGQFSKQWAEYILFAALLLVVCVIFAIMARFYTYINPAEIEAQFDEDEKKNRLEKSNPYFMSGANSQKQM
B1 was tested, and the Km [7] was 1640 µM and the Km [8] was 3130 µM.
